Reference: patent US20120220567A1, “BENZO-FUSED OXAZEPINE COMPOUNDS AS STEAROYL-COENZYME A DELTA-9 DESATURASE INHIBITORS” (priority 2009, published 2012)
pIC50: −log10 of the molar value.

Biological target: T1, SCD-1 (Homo sapiens, UniProt O00767)
T1 construct: 50 μg of protein from a HepG2 cell P2 pellet; endogenous in cells; host or cells: HepG2 cells (P2 pellet)
T1 sequence (O00767 1-359): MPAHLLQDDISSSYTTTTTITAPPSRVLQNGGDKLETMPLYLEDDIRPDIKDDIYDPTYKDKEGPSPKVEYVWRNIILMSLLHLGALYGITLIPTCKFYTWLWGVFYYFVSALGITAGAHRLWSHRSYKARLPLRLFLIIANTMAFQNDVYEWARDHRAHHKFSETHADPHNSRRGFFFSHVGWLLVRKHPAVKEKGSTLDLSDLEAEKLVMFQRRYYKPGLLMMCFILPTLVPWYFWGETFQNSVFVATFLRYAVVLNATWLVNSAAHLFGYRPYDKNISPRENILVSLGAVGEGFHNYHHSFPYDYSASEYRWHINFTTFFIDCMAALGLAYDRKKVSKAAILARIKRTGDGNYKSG
Assay: Stearoyl-CoA desaturase assay (HepG2 cell P2 pellet)
Type: biochemical
Conditions: Table 1, compounds of formula (Ia); protein from HepG2 cell P2 pellet, 20 μM stearoyl-CoA, 15 min at 25° C.; read-out: Ave IC50
Protocol: Stearoyl-CoA desaturase assays were performed in according to Talamo and Bloch. […] Assays were run in triplicate in 100-μl volumes of 100 mM TrisHCl, pH 7.3, containing 20 μM stearoyl-CoA, 2 mM β-NADH, and 50 μg of protein from a HepG2 cell P2 pellet. Since SCD-1 is the only isoform of SCD expressed in these cells, the assay is specific for SCD-1 with these cells as the source of enzyme. Reaction mixtures were incubated fifteen minutes at 25° C. and reactions were then stopped with a volume of trichloroacetic acid giving a final concentration of 0.2%. After five minutes, a 90-μl volume was transferred to a Millipore Multiscreen HTS 96-well filtration plate (MSHVN4B50) containing 125 μl of 10% charcoal in each well, to which vacuum had been previously applied. Plates were shaken fifteen minutes and then filtered into a collection plate. Fifty-μI volumes of filtrate were transferred to another plate containing 150 μl of MicroScint 40 for counting on a TopCount scintillation counter.

SMILES	pIC50
CC(=O)NCC(=O)N1CCC2(CC1)CCN(Cc1ccc(C#N)cc1)c1ccccc1O2 [Compound 23]	< 5.00
CCc1ccc(CN2CCC3(CCN(C(=O)CNC(C)=O)CC3)Oc3c(F)cccc32)cc1 [Compound 47]	5.00 to 6.30
CC(=O)NCC(=O)N1CCC2(CC1)CCN(Cc1ccc(C(C)(C)C)cc1)c1cccc(Cl)c1O2 [Compound 15]	5.00 to 6.30
CC(=O)NCC(=O)N1CCC2(CC1)CCN(Cc1ccc(C(C)(C)C)cc1)c1cccc(F)c1O2 [Compound 46]	5.00 to 6.30
CC(=O)NCC(=O)N1CCC2(CC1)CCN(Cc1cccc(Br)c1)c1ccccc1O2 [Compound 39]	5.00 to 6.30
CC(=O)NCC(=O)N1CCC2(CC1)CCN(Cc1cccc(C(F)(F)F)c1)c1ccccc1O2 [Compound 1, N-(2-oxo-2-(5-(3-(trifluoromethyl)benzyl)-4,5-dihydro-3H-spiro[benzo[b][1,4]oxazepine-2,4′-piperidine]-1′-yl)ethyl)acetamide]	< 5.00
CC(=O)NCC(=O)N1CCC2(CC1)CCN(Cc1cccc(OC(F)(F)F)c1)c1ccccc1O2 [Compound 36]	5.00 to 6.30
CCc1ccc(CN2CCC3(CCN(C(=O)CNC(=O)C4CC4)CC3)Oc3ccccc32)cc1 [Compound 5]	5.00 to 6.30
CC(=O)NCC(=O)N1CCC2(CC1)CCN(Cc1ccc(Cl)cc1)c1ccccc1O2 [Compound 17]	< 5.00
CC(=O)NCC(=O)N1CCC2(CC1)CCN(Cc1ccccc1Cl)c1ccccc1O2 [Compound 28]	5.00 to 6.30
CC(=O)NCC(=O)N1CCC2(CC1)CCN(Cc1ccc(C)s1)c1ccccc1O2 [Compound 20]	< 5.00
CC(=O)NCC(=O)N1CCC2(CC1)CCN(Cc1ccc(OC(F)(F)F)cc1)c1ccccc1O2 [Compound 22]	5.00 to 6.30
CC(=O)NCC(=O)N1CCC2(CC1)CCN(Cc1ccc(C#N)cc1)c1ccccc1O2 [Compound 21]	5.00 to 6.30

Same assay, conditions: Table 2, compounds of formula (Ib); protein from HepG2 cell P2 pellet, 20 μM stearoyl-CoA, 15 min at 25° C.; read-out: Ave IC50

SMILES	pIC50
O=C(NC[C@H](O)CO)c1cnc(N2CCC3(CC2)CCN(Cc2cccc(C(F)(F)F)c2)c2ccccc2O3)s1 [Compound 61]	7.31 to 9.30
CC(C)(C)OC(=O)CCNC(=O)c1cnc(N2CCC3(CC2)CCN(Cc2cccc(C(F)(F)F)c2)c2ccccc2O3)s1 [Compound 60]	6.30 to 7.30
O=C(NCCCO)c1cnc(N2CCC3(CC2)CCN(Cc2cccc(C(F)(F)F)c2)c2cccc(F)c2O3)s1 [Compound 131]	7.31 to 9.30
CC(C)(C)c1ccc(CN2CCC3(CCN(c4ncc(C(=O)NCC5CCCO5)s4)CC3)Oc3c(F)cccc32)cc1 (stereo not shown) [Compound 89]	6.30 to 7.30
CC(C)(C)c1ccc(CN2CCC3(CCN(c4ncc(C(=O)NCc5ccco5)s4)CC3)Oc3c(F)cccc32)cc1 [Compound 102]	5.00 to 6.30
CC(C)(C)OC(=O)CCNC(=O)c1cnc(N2CCC3(CC2)CCN(Cc2ccc(C(C)(C)C)cc2)c2ccccc2O3)s1 [Compound 125]	5.00 to 6.30
CC(C)(C)c1ccc(CN2CCC3(CCN(c4ncc(C(=O)NCCCO)s4)CC3)Oc3c(F)cccc32)cc1 [Compound 96]	7.31 to 9.30
CC(C)(C)c1ccc(CN2CCC3(CCN(c4ncc(C(=O)NC[C@H](O)CO)s4)CC3)Oc3ccccc32)cc1 [Compound 126]	7.31 to 9.30
CC(C)(C)OC(=O)CCNC(=O)c1cnc(N2CCC3(CC2)CCN(Cc2ccc(C(C)(C)C)cc2)c2cccc(F)c2O3)s1 [Compound 116]	7.31 to 9.30
CC(C)(C)c1ccc(CN2CCC3(CCN(c4ncc(C(=O)NCCCn5ccnn5)s4)CC3)Oc3c(F)cccc32)cc1 [Compound 86]	5.00 to 6.30
CC(C)(C)c1ccc(CN2CCC3(CCN(c4ncc(C(=O)NCCN5CCCC5)s4)CC3)Oc3c(F)cccc32)cc1 [Compound 101]	5.00 to 6.30
CC(C)(C)c1ccc(CN2CCC3(CCN(c4ncc(C(=O)NCC(F)(F)F)s4)CC3)Oc3c(F)cccc32)cc1 [Compound 98]	6.30 to 7.30
CC(C)(C)c1ccc(CN2CCC3(CCN(c4ncc(C(=O)NCC5CCCO5)s4)CC3)Oc3c(F)cccc32)cc1 (stereo not shown) [Compound 79]	6.30 to 7.30
CC(C)(C)c1ccc(CN2CCC3(CCN(c4ncc(C(=O)NCc5ccccn5)s4)CC3)Oc3c(F)cccc32)cc1 [Compound 106]	< 5.00
COCCNC(=O)c1cnc(N2CCC3(CC2)CCN(Cc2ccc(C(C)(C)C)cc2)c2cccc(F)c2O3)s1 [Compound 103]	6.30 to 7.30
COC(=O)CCNC(=O)c1cnc(N2CCC3(CC2)CCN(Cc2ccc(C(C)(C)C)cc2)c2ccccc2O3)s1 [Compound 69]	7.31 to 9.30
O=C(NCCCO)c1cnc(N2CCC3(CC2)CCN(Cc2cccc(C(F)(F)F)c2)c2ccccc2O3)s1 [Compound 62]	7.31 to 9.30
CC(C)(C)c1ccc(CN2CCC3(CCN(c4ncc(C(=O)NCCCN5CCCC5)s4)CC3)Oc3c(F)cccc32)cc1 [Compound 117]	< 5.00
Cc1cnc(CNC(=O)c2cnc(N3CCC4(CC3)CCN(Cc3ccc(C(C)(C)C)cc3)c3cccc(F)c3O4)s2)cn1 [Compound 112]	5.00 to 6.30
CCCNC(=O)c1cnc(N2CCC3(CC2)CCN(Cc2ccc(C(C)(C)C)cc2)c2cccc(F)c2O3)s1 [Compound 94]	6.30 to 7.30
CC(C)(C)c1ccc(CN2CCC3(CCN(c4ncc(C(=O)NCCn5ccnc5)s4)CC3)Oc3c(F)cccc32)cc1 [Compound 119]	< 5.00
CC(C)(C)c1ccc(CN2CCC3(CCN(c4ncc(C(=O)NCCc5c[nH]cn5)s4)CC3)Oc3c(F)cccc32)cc1 [Compound 111]	< 5.00
CC(C)(C)c1ccc(CN2CCC3(CCN(c4ncc(C(=O)NCCC(N)=O)s4)CC3)Oc3c(F)cccc32)cc1 [Compound 91]	6.30 to 7.30
CNC(=O)c1cnc(N2CCC3(CC2)CCN(Cc2ccc(C(C)(C)C)cc2)c2ccccc2O3)s1 [Compound 70]	7.31 to 9.30
CC(C)(C)c1ccc(CN2CCC3(CCN(c4ncc(C(N)=O)s4)CC3)Oc3c(F)cccc32)cc1 [Compound 76]	7.31 to 9.30
CC(C)(C)c1ccc(CN2CCC3(CCN(c4ncc(C(=O)NCc5ccccn5)s4)CC3)Oc3c(F)cccc32)cc1 [Compound 85]	6.30 to 7.30
CC(C)(C)c1ccc(CN2CCC3(CCN(c4ncc(C(=O)NCc5ccccc5)s4)CC3)Oc3ccccc32)cc1 [Compound 67]	5.00 to 6.30
CC(C)(C)c1ccc(CN2CCC3(CCN(c4ncc(C(=O)Nc5ccccc5)s4)CC3)Oc3ccccc32)cc1 [Compound 71]	< 5.00

Same assay, conditions: Table 3, compounds of formula (Ic); protein from HepG2 cell P2 pellet, 20 μM stearoyl-CoA, 15 min at 25° C.; read-out: Ave IC50

SMILES	pIC50
O=C(NCCc1ccncc1)c1ccc(N2CCC3(CC2)CCN(Cc2cccc(C(F)(F)F)c2)c2ccccc2O3)nn1 [Compound 165]	7.31 to 9.30
O=C(NCCC1CC1)c1ccc(N2CCC3(CC2)CCN(Cc2cccc(C(F)(F)F)c2)c2cccc(F)c2O3)nn1 [Compound 175]	7.31 to 9.30
O=C(NCCC1CC1)c1ccc(N2CCC3(CC2)CCN(Cc2cccc(C(F)(F)F)c2)c2ccccc2O3)cc1 [Compound 171]	5.00 to 6.30
COC(=O)c1ccc(N2CCC3(CC2)CCN(Cc2ccc(C(C)(C)C)cc2)c2cccc(F)c2O3)nc1 [Compound 143]	6.30 to 7.30
CC(C)Oc1ccc(CN2CCC3(CCN(c4ccc(C(=O)NCCC5CC5)nn4)CC3)Oc3ccccc32)cc1 [Compound 178]	7.31 to 9.30
O=C(NCCCO)c1ccc(N2CCC3(CC2)CCN(Cc2cccc(C(F)(F)F)c2)c2ccccc2O3)nn1 [Compound 161]	6.30 to 7.30
O=C(NCCc1cccnc1)c1ccc(N2CCC3(CC2)CCN(Cc2cccc(C(F)(F)F)c2)c2ccccc2O3)nn1 [Compound 163]	7.31 to 9.30
O=C(NCCc1ccccc1)c1ccc(N2CCC3(CC2)CCN(Cc2cccc(C(F)(F)F)c2)c2ccccc2O3)nn1 [Compound 155]	7.31 to 9.30
NC(=O)c1ccc(N2CCC3(CC2)CCN(Cc2ccc(Oc4ccccc4)cc2)c2ccccc2O3)nn1 [Compound 184]	7.31 to 9.30
CC(C)c1ccc(CN2CCC3(CCN(c4ccc(C(=O)NCCC5CC5)nn4)CC3)Oc3ccccc32)cc1 [Compound 181]	7.31 to 9.30
CCCNC(=O)c1ccc(N2CCC3(CC2)CCN(Cc2cccc(C(F)(F)F)c2)c2ccccc2O3)nn1 [Compound 157]	6.30 to 7.30
O=C(NCCC1CC1)c1ccc(N2CCC3(CC2)CCN(Cc2cc4ccccc4o2)c2ccccc2O3)nn1 [Compound 180]	7.31 to 9.30
CCCCNC(=O)c1ccc(N2CCC3(CC2)CCN(Cc2cccc(C(F)(F)F)c2)c2ccccc2O3)nn1 [Compound 156]	7.31 to 9.30
O=C(NCCC1CC1)c1ccc(N2CCC3(CC2)CCN(Cc2ccc(Oc4ccccc4)cc2)c2ccccc2O3)nn1 [Compound 183]	7.31 to 9.30
NC(=O)c1ccc(N2CCC3(CC2)CCN(Cc2cccc(C(F)(F)F)c2)c2ccccc2O3)nn1 [Compound 164]	7.31 to 9.30
COC(=O)c1ccc(N2CCC3(CC2)CCN(Cc2ccc(C(C)(C)C)cc2)c2ccccc2O3)nn1 [Compound 139]	5.00 to 6.30
O=C(NCC1CC1)c1ccc(N2CCC3(CC2)CCN(Cc2cccc(C(F)(F)F)c2)c2ccccc2O3)nn1 [Compound 168]	6.30 to 7.30
